Key:
[1] = Local tolerance test: s.c. injection of bisphosphonate solution pH 7.4 with and without chelating agent, swelling score and diameter of subcutaneous lesions at necropsy; conditions: for adverse local reaction at the application sites: additional bivalent cation chelator in bisphosphonate formulation, compared with corresponding formulation without chelator; for severity of subcutaneous findings at necropsy / intensity and duration of local swelling at the injection site: chelating agent in injectable formulations of alendronate or ibandronate; for severity of subcutaneous findings at necropsy: necropsy after 9 days; for intensity and duration of local swelling at the injection site: observed over 9 days
Protocol: (§1) Groups of 3 rats were treated with test formulations containing 1 mg ibandronate/ml physiological saline buffered at pH 7.4. One group of rats received the test formulation without any additional additive, another group received the test solution with 1 mg EDTA/ml as an additive. The back of the rat was shaved one day before treatment. A volume of 0.5 ml each was injected subcutaneously at three different sites of the right part of shaved back. The left side of the back was treated with the corresponding formulation without ibandronate (placebo). Local reactions were assessed by a scoring system for swelling: 0=no reaction, 0.5=barely perceptible swelling, 1=slight swelling, 2=moderate swelling, 3=marked swelling, 4=severe swelling. The animals were observed over 9 days and thereafter necropsied. At necropsy, the diameter of subcutaneous lesions, mainly consisting of reddening or swelling, was measured.
(§2) The same study design as described in example 1 was applied to examine the concentration dependence of the EDTA effect. EDTA was added at concentrations of 0.1, 1.0 and 10 mg/ml.
(§3) DTPA was added at a concentration of 10 mg/ml.
(§4) The same study design as described in example 1 was applied to examine the efficacy of EDTA on local reaction to s.c. injected alendronate. The test formulations contained 3 mg alendronate/ml physiological saline buffered at pH 7.4. EDTA was added at a concentration of 10 mg/ml.

[2] = rat, in vivo, pH 7.4
Protocol: as §1, §2, §3, §4

Row | SMILES | efficacy of DTPA as chelating agent on local reaction ([1]; 1 mg ibandronate/ml pH 7.4, DTPA 10 mg/ml, s.c.) | adverse local reaction at the application sites [1] | severity of subcutaneous findings at necropsy ([1]; s.c.) | intensity and duration of local swelling at the injection site ([1]; s.c.) | improving effect of EDTA on local tolerance (dose dependence) [2] | effect on local adverse reactions at lowest ratio ([1]; 1 mg ibandronate/ml pH 7.4, molar ibandronate to EDTA ratio 1:0.1 (EDTA 0.1 mg/ml)) | local adverse reactions at highest ratio ([1]; 1 mg ibandronate/ml pH 7.4, molar ibandronate to EDTA ratio 1:10 (EDTA 10 mg/ml)) | effect of EDTA on alendronate induced local reaction ([1]; 3 mg alendronate/ml physiological saline pH 7.4, EDTA 10 mg/ml, s.c.)
1 | O=C(O)CN(CCN(CC(=O)O)CC(=O)O)CCN(CC(=O)O)CC(=O)O [DTPA, diethylenetriaminepentaacetic acid] | could also be demonstrated | substantially improved | reduces | reduces |  |  |  | 
2 | O=C(O)CN(CCN(CC(=O)O)CC(=O)O)CC(=O)O [EDTA, ethylenediaminetetraacetic acid] |  | substantially improved | reduces | reduces | dose-related | still some beneficial effect | still not completely abolished | could also be demonstrated

From patent publication US20010011082A1, “Parenteral bisphosphonate composition with improved local tolerance” (priority 2000, published 2001)
